Results on eight molecules are retold here after US11254668B2, “Pyrazolo[1,5-A]pyrazin-4-yl and related derivatives” (Pfizer Inc., priority 2017, dated 2022).

Like-named read-outs stand apart in the source and are kept apart here.

The target of one assay is TYK2 (Homo sapiens (Human), UniProt P29597). Description: JAK Caliper Enzyme Assay at 1 mM ATP, TYK2. The format is biochemical. The essentials:
(§1)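 Inhibition is measured as reduced phosphorylation of a synthetic peptide by the recombinant human kinase domain at 1 mM ATP. Conditions give 20–30% conversion at room temperature before EDTA quench, and on-chip separation of labelled substrate and product yields percent conversion for dose–response plotting.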

Another assay has as its target JAK1 (Homo sapiens (Human), UniProt P23458). Description: JAK Caliper Enzyme Assay at 1 mM ATP, JAK1. Format: biochemical. Summed up: (§2)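 Recombinant human kinase domains phosphorylated a fluorescent synthetic peptide at room temperature, with enzyme level and time tuned to 20% to 30% conversion; EDTA stop buffer ended reactions. Mobility-shift separation gave percent product from peak heights, normalised to DMSO and positive controls, and IC50s came from concentration–effect curves.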

The target of the next assay is JAK2 (Homo sapiens (Human), UniProt O60674). Kind of assay: JAK Caliper Enzyme Assay at 1 mM ATP, JAK2. The format is biochemical. Summed up:
as §1

The target of the next assay is JAK3 (Homo sapiens (Human), UniProt P52333). Kind of assay: JAK Caliper Enzyme Assay at 1 mM ATP, JAK3. The format is biochemical. Summed up: as §2
The test system of assay [1] is IL-12 signaling (TYK2 and JAK2), STAT4 phosphorylation. Description: Human Whole Blood IL-12 Induced STAT4 Phosphorylation Assay. Format: cell-based. The settings on record: IL-12 5 ng/mL, pSTAT4 in lymphocytes by flow cytometry. The protocol:
Selected compounds were assessed for their ability to inhibit IL-12 signaling in a human whole blood flow cytometry assay. IL-12 signals through TYK2 and JAK2.
Human Whole Blood IL-12 Induced STAT4 Phosphorylation Assay
Test articles were prepared as 30 mM stocks in DMSO. An 11-point 2.5 dilution series was created in DMSO with a top concentration of 10 mM. Further dilution was done by adding 4 μL of the above test article solutions into 96 μL of PBS with a top concentration of 400 μM. Human whole blood was collected from healthy donors via vein puncture into Vacutainer collection tubes containing sodium heparin (Catalog No. 366480; Becton Dickinson, Franklin Lakes, N.J.). Blood was warmed to 37° C. prior to use. Human whole blood was aliquoted ([…]) in 96-well, deep-well, V-bottom plates and treated with compounds at 11 different concentrations (0.2% DMSO final) at 37° C. for 60 minutes. This was followed by a challenge with IL-12 ([…]; final, 5 ng/mL) for 15 minutes. Samples were treated with warm 1× Lyse/Fix buffer ([…]) to terminate activation and further incubated at 37° C. for 20 minutes to lyse red blood cells. Plates were centrifuged at 300×g for 5 minutes, supernatant was aspirated, and cells were washed with […] of staining buffer (PBS containing 0.5% fetal bovine serum and 0.01% sodium azide). The washed cell pellets were resuspended with […] of pre-chilled 90% methanol, and incubated at 4° C. for 30 minutes. Plates were centrifuged at 300×g for 5 minutes, supernatant containing 90% methanol was aspirated, and cells were washed with […] of staining buffer. Cell pellets were resuspended in staining buffer containing anti-pSTAT4-AlexaFluor647 (1 to 150 dilution, […]), and incubated at room temperature in the dark overnight.
Samples were transferred to 96-well U-bottom plates and flow cytometric analysis was performed on a FACSCalibur or LSRFortessa equipped with a HTS plate loader (BD Biosciences). The lymphocyte population was gated for histogram analysis of pSTAT4. Background fluorescence was defined using unstimulated cells and a gate was placed at the foot of the peak to include ˜0.5% gated population. The histogram statistical analysis was performed using CellQuestÔ Pro version 5.2.1 (BD Biosciences) or FACSDiva version 6.2 (BD Biosciences) software. Relative fluorescence unit (RFU), which measures the level of phospho STAT4, was calculated by multiplying the percent positive population and its mean fluorescence. Data from 11 compound concentrations (singlicate at each concentration) was normalized as a percentage of control based on the formula: % of Control=100'(A−B)/(C−B) where A is the RFU from wells containing compound and IL-12, B is the RFU from wells without IL-12 and compound (minimum fluorescence) and C is the RFU from wells containing only IL-12 (maximum fluorescence). Inhibition curves and IC50 values were determined using the Prism version 5 software (GraphPad, La Jolla, Calif.).
A general note: A flow cytometer gives signals particle by particle.

Chain of TYK2 (P29597 897-1176): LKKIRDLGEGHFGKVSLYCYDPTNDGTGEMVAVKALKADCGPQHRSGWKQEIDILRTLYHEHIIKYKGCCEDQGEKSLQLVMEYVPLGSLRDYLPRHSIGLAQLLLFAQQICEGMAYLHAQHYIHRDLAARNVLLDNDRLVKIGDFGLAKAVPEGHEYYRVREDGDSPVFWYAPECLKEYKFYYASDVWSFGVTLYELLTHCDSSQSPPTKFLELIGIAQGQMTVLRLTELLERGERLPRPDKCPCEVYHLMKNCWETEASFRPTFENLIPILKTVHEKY
Chain of JAK2 (O60674 849-1124): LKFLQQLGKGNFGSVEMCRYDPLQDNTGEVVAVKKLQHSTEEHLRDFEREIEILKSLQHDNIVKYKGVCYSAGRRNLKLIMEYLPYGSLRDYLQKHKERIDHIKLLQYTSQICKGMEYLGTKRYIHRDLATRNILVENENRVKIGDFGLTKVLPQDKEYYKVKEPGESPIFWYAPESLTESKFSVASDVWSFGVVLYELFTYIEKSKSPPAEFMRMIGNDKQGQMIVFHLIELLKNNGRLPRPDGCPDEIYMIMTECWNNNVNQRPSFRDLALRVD
Chain of JAK3 (P52333 822-1111): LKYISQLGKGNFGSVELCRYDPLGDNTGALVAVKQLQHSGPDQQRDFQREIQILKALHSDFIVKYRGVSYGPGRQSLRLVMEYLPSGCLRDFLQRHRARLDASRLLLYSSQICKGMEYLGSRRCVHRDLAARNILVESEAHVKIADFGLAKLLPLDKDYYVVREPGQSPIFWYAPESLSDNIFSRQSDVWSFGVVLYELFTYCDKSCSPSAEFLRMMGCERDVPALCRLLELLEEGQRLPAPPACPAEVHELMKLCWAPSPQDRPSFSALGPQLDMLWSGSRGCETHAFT
Chain of JAK1 (P23458 875-1153): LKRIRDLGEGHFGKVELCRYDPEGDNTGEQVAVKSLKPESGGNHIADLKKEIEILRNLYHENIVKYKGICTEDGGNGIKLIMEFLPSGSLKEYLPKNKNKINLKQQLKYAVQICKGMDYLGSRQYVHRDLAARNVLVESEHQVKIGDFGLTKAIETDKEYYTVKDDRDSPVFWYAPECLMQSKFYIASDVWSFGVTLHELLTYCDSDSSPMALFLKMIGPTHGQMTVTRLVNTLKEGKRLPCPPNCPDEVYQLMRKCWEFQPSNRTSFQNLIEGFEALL

With `N#CC[C@]1(n2ccc(-c3nc(-c4cc(N)[nH]n4)cc4ncccc34)n2)C[C@H](C#N)C1` [Example 41, trans-3-{3-[7-(5-amino-1H-pyrazol-3-yl)-1,6-naphthyridin-5-yl]-1H-pyrazol-1-yl}-3-(cyanomethyl)cyclobutanecarbonitrile], the IC50 (commonly the concentration that gives 50% inhibition) at TYK2 came out at 0.008 µM; at JAK1, 0.014 µM; on JAK2, 0.021 µM; at JAK3 it was 1.24 µM; in assay [1], 0.076 µM.
The like results for `N#CC[C@H]1C[C@@](CC#N)(n2ccc(-c3nc(-c4cn[nH]c4)cc4ncccc34)n2)C1` [Example 78, 2,2′-(cis-1-{3-[7-(1H-pyrazol-4-yl)-1,6-naphthyridin-5-yl]-1H-pyrazol-1-yl}cyclobutane-1,3-diyl)diacetonitrile] were, in that order, 0.014 µM, 0.172 µM, 0.104 µM, 8.61 µM and 0.076 µM.
`Cn1cc(-c2cc3ncccc3c(-c3ccn([C@]4(CC#N)C[C@H](C#N)C4)n3)n2)cn1` [Example 103, cis-3-(cyanomethyl)-3-{3-[7-(1-methyl-1H-pyrazol-4-yl)-1,6-naphthyridin-5-yl]-1H-pyrazol-1-yl}cyclobutanecarbonitrile]: the IC50 came to 0.007 µM at TYK2; 0.055 µM at JAK1; 0.013 µM at JAK2; 0.873 µM at JAK3; 0.04 µM in assay [1].
For the molecule `N#CCN1CC(CC#N)(n2ccc(-c3nc(-c4cnn(C5COC5)c4)cc4ncccc34)n2)C1` [Example 120, 2,2′-[3-(3-{7-[1-(oxetan-3-yl)-1H-pyrazol-4-yl]-1,6-naphthyridin-5-yl}-1H-pyrazol-1-yl)azetidine-1,3-diyl]diacetonitrile], the 50% inhibitory concentration (IC50) at TYK2 stood at 0.015 µM; at JAK1, 0.521 µM; at JAK2, 0.028 µM; at JAK3, 8.53 µM; in assay [1] (Lymphocyte), 0.044 µM.
`N#CC[C@]1(n2ncc(-c3cc(-c4cn[nH]c4)cc4ncccc34)n2)C[C@H](C#N)C1` [Example 315, trans-3-(cyanomethyl)-3-{4-[7-(1H-pyrazol-4-yl)quinolin-5-yl]-2H-1,2,3-triazol-2-yl}cyclobutanecarbonitrile]: the IC50 on TYK2 was 0.019 µM; on JAK1, 0.524 µM; on JAK2, 0.215 µM; at JAK3, above 10 µM; in assay [1], 0.123 µM.
With `Cn1cc(-c2cc(-c3cnn([C@]4(CC#N)C[C@H](C#N)C4)c3)n3ccnc3c2)cn1` [Example 458, cis-3-(cyanomethyl)-3-{4-[7-(1-methyl-1H-pyrazol-4-yl)imidazo[1,2-a]pyridin-5-yl]-1H-pyrazol-1-yl}cyclobutanecarbonitrile], the IC50 is 0.025 µM at TYK2 (JAK Caliper enzyme assay); 1.68 µM at JAK1 (JAK Caliper enzyme assay); 0.204 µM on JAK2 (JAK Caliper enzyme assay); above 10 µM on JAK3 (JAK Caliper enzyme assay); 0.177 µM in assay [1].
Take `Cn1cc(-c2cc3nccnc3c(-c3ccn(C4(CC#N)CN(CC(F)(F)F)C4)n3)n2)cn1` [Example 482, [3-{3-[7-(1-methyl-1H-pyrazol-4-yl)pyrido[3,4-b]pyrazin-5-yl]-1H-pyrazol-1-yl}-1-(2,2,2-trifluoroethyl)azetidin-3-yl]acetonitrile]: the IC50 at TYK2 (JAK Caliper enzyme assay) is 3.79 µM; on JAK1 (JAK Caliper enzyme assay) it was above 10 µM; on JAK2 (JAK Caliper enzyme assay) it was above 10 µM; on JAK3 (JAK Caliper enzyme assay), above 10 µM.
For the molecule “[3-(4-{7-[1-(oxetan-3-yl)-1H-pyrazol-4-yl]-1,6-naphthyridin-5-yl}-1H-pyrazol-1-yl)-1-(2,2,2-trifluoroethyl)azetidin-3- [Example 10]”, the IC50 at TYK2 came to 0.02 µM; at JAK1, 0.086 µM; at JAK2, 0.01 µM; on JAK3 it was 2 µM.
